# Data as given in PMC6617776, “Novel Antihypertensive Peptides Derived from Chicken Foot Proteins” (Molecular Nutrition & Food Research, 2019).
# Ends that are not written are not given here.
# Tests used:
# [1] = test system: spontaneously hypertensive rats (SHR); assay: Measurement of blood pressure by the tail-cuff method after a single oral dose; assay type: in vivo, rat; settings: captopril 50 mg kg^−1 bw oral single dose, mean ± SEM, n = 6
# Description: Male SHR (17–20 weeks old, weighing 350–400 g) were obtained from Charles River Laboratories España S.A. (Barcelona, Spain). The animals were singly housed in animal quarters at 22 °C with a 12 h light–dark period. They were fed with a standard diet based on chow Panlab A04 (Panlab, Barcelona, Spain) and had access to tap water ad libitum.
# The SBP and DBP in the animals were measured using the tail‐cuff method 23 with a noninvasive BP system model (Letica, Hospitalet, Barcelona, Spain). The rats were given a single dose of 10 mg kg^−1 body weight (bw) of the synthesized peptides, including VGKPGARAPMY, QVGPLIGRYCG, AVFQHNCQE, LSGPVKF, or AVKILP, dissolved in tap water in a total volume of 1.5 mL. Peptides were administered to the SHR by gastric […] through an acute administration between 9 and 10 in the morning.
# Positive control rats received 50 mg kg^−1 bw of captopril, a known ACE‐inhibitor, also dissolved in 1.5 mL of tap water, and the negative control rats received 1.5 mL of tap water. SBP was measured in the rats before peptide administration as well as 2, 4, 6, 8, and 24 h post‐administration. […] The changes in SBP and DBP were expressed as the differences in these variables before and after the administration of the different peptides. […]
# Differences between treatments were analyzed by two‐way analysis of variance (two‐way ANOVA). […] Outliers were determined using Grubbs’ test. […]
# [2] = biological target: T1, ACE (angiotensin I‐converting enzyme, EC 3.4.15.1) (Oryctolagus cuniculus, UniProt P12822); assay: ACEI activity, fluorimetric assay with o-Abz-Gly-p-Phe(NO2)-Pro-OH; assay type: biochemical; settings: synthetic peptides; concentration of peptide needed to inhibit 50 % of the original ACE activity
# T1 sequence (P12822 34-1310): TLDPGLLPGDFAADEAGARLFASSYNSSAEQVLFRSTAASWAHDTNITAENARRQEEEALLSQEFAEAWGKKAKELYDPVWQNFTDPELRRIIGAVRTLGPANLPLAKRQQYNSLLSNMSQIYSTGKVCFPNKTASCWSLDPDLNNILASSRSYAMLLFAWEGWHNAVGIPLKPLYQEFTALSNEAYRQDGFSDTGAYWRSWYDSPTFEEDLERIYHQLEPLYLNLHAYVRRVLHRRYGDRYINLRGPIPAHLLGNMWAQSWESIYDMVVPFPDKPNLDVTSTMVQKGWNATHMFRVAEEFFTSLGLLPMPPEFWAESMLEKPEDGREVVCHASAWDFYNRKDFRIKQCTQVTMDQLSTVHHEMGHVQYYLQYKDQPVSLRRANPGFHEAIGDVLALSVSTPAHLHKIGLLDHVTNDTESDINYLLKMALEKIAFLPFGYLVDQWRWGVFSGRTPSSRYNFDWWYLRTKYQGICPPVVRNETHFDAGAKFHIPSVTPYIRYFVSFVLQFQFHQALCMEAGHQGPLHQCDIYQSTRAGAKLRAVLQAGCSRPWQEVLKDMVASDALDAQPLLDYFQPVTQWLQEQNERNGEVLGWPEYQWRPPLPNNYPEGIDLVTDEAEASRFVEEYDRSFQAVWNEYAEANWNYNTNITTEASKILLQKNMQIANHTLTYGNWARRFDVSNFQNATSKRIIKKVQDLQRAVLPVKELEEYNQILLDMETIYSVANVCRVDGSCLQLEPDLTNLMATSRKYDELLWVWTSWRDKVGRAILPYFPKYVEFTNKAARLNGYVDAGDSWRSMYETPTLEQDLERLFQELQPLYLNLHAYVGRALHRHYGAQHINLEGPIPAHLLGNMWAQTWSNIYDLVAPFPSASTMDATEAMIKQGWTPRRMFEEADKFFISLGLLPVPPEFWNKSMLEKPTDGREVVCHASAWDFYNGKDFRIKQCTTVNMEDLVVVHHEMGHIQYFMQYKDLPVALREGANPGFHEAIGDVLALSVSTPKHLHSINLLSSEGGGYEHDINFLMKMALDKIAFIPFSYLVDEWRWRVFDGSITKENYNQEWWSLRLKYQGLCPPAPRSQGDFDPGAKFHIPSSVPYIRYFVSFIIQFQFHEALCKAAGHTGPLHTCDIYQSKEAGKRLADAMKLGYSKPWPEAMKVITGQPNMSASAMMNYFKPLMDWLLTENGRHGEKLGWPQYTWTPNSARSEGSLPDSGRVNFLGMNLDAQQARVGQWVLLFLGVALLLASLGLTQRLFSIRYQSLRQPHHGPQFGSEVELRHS
# Text: Chicken feet (Gallus gallus domesticus) were provided by a local farm (Granja Gaià, La Riera de Gaià, Spain). Protamex solutions (EC 3.4.21.62 and 3.4.24.28, 1.5 AU g^−1 from Bacillus licheniformis and Bacillus amyloliquefaciens) were kindly provided by Novozymes (Bagsværd, Denmark). ACE (angiotensin I‐converting enzyme, EC 3.4.15.1) was purchased from Sigma‐Aldrich (Madrid, Spain), captopril (PubChem CID: 44093) was purchased from Santa Cruz Biotechnology (Dallas, TX, USA) and o‐aminobenzoylglicil‐p‐nitrofenilalanilprolina (o‐Abz‐Gly‐p‐Phe(NO2)‐Pro‐OH) was provided by Bachem Feinchemikalien (Bubendorf, Switzerland). The synthesized peptides (LSETVV, LSGPVKF, AVKILP, VRWEPAPGPV, VGKPGARAPMY, QVGPLIGRYCG, LGIHPDWQFV, and AVFQHNCQE, purity grade ≥ 90 %) were purchased from Caslo Laboratory ApS (Kongens Lyngby, Denmark). Acetonitrile and trifluoroacetic acid were purchased from Sigma‐Aldrich. All other chemical solvents used were of analytical grade.
# ACEI activity was measured according to Mas‐Capdevila et al.21 The fluorescence measurements were performed after 30 min in a multiscan microplate fluorimeter (FLUOstar optima, BMG Labtech, Offeuburg, Germany). The excitation and emission wavelengths were 360 and 400 nm, respectively. The software used to process the data was FLUOstar control (version 1.32 R2, BMG Labtech).
# A nonlinear fit was performed on the experimental data to calculate the 50 % inhibitory concentration values (IC50) with the PRISM version 4.02 program for Windows (GraphPad Software, Inc. San Diego, CA, USA). ACEI activity was expressed as a percentage (%) or IC50 (µg µL^−1 solution). The determination of the ACEI activity of the samples was performed at least in duplicate. Data are represented as a mean value ± standard deviation (SD).
# Protein content was determined by the bicinchoninic acid method using the standard Pierce BCA Protein Assay (ThermoFisher Scientific). The assay was conducted according to the manufacturer's instructions in a microplate format. A calibration standard curve was prepared with seroalbumin bovine. Determination of the protein content was performed at least in duplicate. The results are expressed as the mean ± SD.
# ACE = test system: ACE; design: method as in earlier work; settings: read-out: ACEI activity IC50 of fermented milk-derived peptides; cited from earlier work
Compound,IC50 [2],other results
C[C@H](CS)C(=O)N1CCC[C@H]1C(=O)O [captopril],–,maximum decrease in DBP ([1]; 4 h post-administration): −32.97 ± 8.80 mmHg; maximum decrease in SBP ([1]; 6 h post-administration): −33.67 ± 1.94 mmHg
AVFQHNCQE [AVFQHNCQE],44.8 µM,–
AVKILP [AVKILP],7.1 µM,–
LGIHPDWQFV [LGIHPDWQFV],> 138 µM,–
LHLPLP [known antihypertensive fermented milk-derived peptide],–,IC50 (ACE): 5.5 µM
LSGPVKF [LSGPVKF],80.9 µM,–
QVGPLIGRYCG [QVGPLIGRYCG],11 µM,–
VRWEPAPGPV [VRWEPAPGPV],> 150 µM,–
